As usually defined, the ED50 is the dose at which the effect has come halfway, by size or by number of responders.

For test [1], the species on record is Rattus norvegicus. Kind of test: Effective dose for 50 percent inhibition of gastric antisecretory activity in the 4 hr pylorus-ligated rat. The class given is functional. To be noted: Stomach.
Test [2] relates to Rattus norvegicus. Kind of test: Percent inhibition of gastric antisecretory activity in the 4 hr pylorus-ligated rat to that of control at a dose of 100 mg/kg. The class given is functional. Particulars: Stomach, read-out: Inhibition.
Test [3] deals with Rattus norvegicus. The experiment in a line: Compound was evaluated for antiulcer activity in rats due to stress after oral administration. The class given is functional.
Test [4] concerns Rattus norvegicus. Kind of test: Percent inhibition of gastric antisecretory activity in the 4 hr pylorus-ligated rat to that of control at a dose of 100 mg/kg; not statistically significant. The class given is functional. Particulars: Stomach.
In test [5] the test system is Rattus norvegicus. The experiment in a line: Compound was evaluated for antiulcer activity due to stress in rats after oral administration; not statistically significant. The class given is functional, organism-based.
The test system of test [6] is Rattus norvegicus. The experiment in a line: Compound was evaluated for antiulcer activity in rats after oral administration. (stress ulcer); NS means not statistically significant. The class given is functional, organism-based.

The structures appear in SMILES notation. Calls of active or inactive are those of the source. The rule behind the calls is not given here.

`C/N=C(\NC#N)NCCSCn1nc(-c2ccc(C)cc2)ccc1=O` gave a median effective dose (ED50) in the test filed under Rattus norvegicus [1] of less than 53.8 mg/kg. Moreover, the inhibition in vivo at 100 mg/kg in the test on Rattus norvegicus [2] was 62.5%.
Regarding `CN/C(=N\CCSCc1nc[nH]c1C)NC#N` [CIMETIDINE], the figures for the median effective dose (ED50) in the test listed under Rattus norvegicus [1] and with Rattus norvegicus [3] were 60.3 mg/kg and 43.2 mg/kg, respectively. For the same compound, in the test on Rattus norvegicus [2], the inhibition in vivo at 100 mg/kg turned out to be 80.6%.
`CC/N=C(\NC#N)NCCSCCn1nc(-c2ccccc2)ccc1=O`: the ED50 in the test listed under Rattus norvegicus [1] is less than 100 mg/kg. Moreover, in the test on Rattus norvegicus [2], the inhibition in vivo at 100 mg/kg was determined as 50.8%.
Take `C/N=C(\NC#N)NCCSCCn1nc(-c2ccccc2)ccc1=O`: the ED50 in the test filed under Rattus norvegicus [1] was less than 80 mg/kg; in the test with Rattus norvegicus [3], 77.6 mg/kg. Moreover, in the test with Rattus norvegicus [2], the inhibition in vivo at 100 mg/kg worked out at 58.3%.
Regarding `CC/N=C(\NC#N)NCCSCCCn1nc(-c2ccccc2)ccc1=O`, the inhibition in vivo at 100 mg/kg in the test with Rattus norvegicus [4] is 22.9%.
As for `CC/N=C(\NC#N)NCCSCn1nc(-c2ccccc2)ccc1=O`, the ED50 in the test filed under Rattus norvegicus [1] is less than 100 mg/kg; with Rattus norvegicus [3] it was 63.1 mg/kg. The inhibition in vivo at 100 mg/kg in the test with Rattus norvegicus [2] stood at 50.1%.
For `C/N=C(\NC#N)NCCSCn1nc(C)ccc1=O` the same measures were more than 100 mg/kg, more than 100 mg/kg and 30%.
Consider `C/N=C(\NC#N)NCCCOCn1nc(-c2ccccc2)ccc1=O`, for which the ED50 result in the test with Rattus norvegicus [5] is “inactive”. The ED50 in the test filed under Rattus norvegicus [1] is less than 100 mg/kg. Further, the inhibition in vivo at 100 mg/kg in the test on Rattus norvegicus [2] amounted to 49.8%.
For `C/N=C(\NC#N)NCCOCn1nc(-c2ccccc2)ccc1=O`, the ED50 was less than 82.3 mg/kg in the test filed under Rattus norvegicus [1] and more than 100 mg/kg in the test with Rattus norvegicus [3]. Also, the inhibition in vivo at 100 mg/kg with Rattus norvegicus [2] is 60.6%.
`C/N=C(\NC#N)NCCSCn1nc(-c2ccccc2)ccc1=O`: the values for the ED50 in the test listed under Rattus norvegicus [1] and with Rattus norvegicus [3] were less than 30.5 mg/kg and 28.5 mg/kg, respectively. For the same compound, the inhibition in vivo at 100 mg/kg in the test with Rattus norvegicus [2] was found to be 83.3%.
In the test listed under Rattus norvegicus [1], `CCC/N=C(\NC#N)NCCSCCn1nc(-c2ccccc2)ccc1=O` yielded a median effective dose (ED50) of more than 100 mg/kg. Also, the inhibition in vivo at 100 mg/kg in the test on Rattus norvegicus [2] turned out to be 33.5%.
For the compound `C/N=C(\NC#N)NCCCCn1nc(-c2ccccc2)ccc1=O`, the ED50 came to 32.4 mg/kg in the test listed under Rattus norvegicus [1] and 38.5 mg/kg with Rattus norvegicus [3]. Besides, the inhibition in vivo at 100 mg/kg in the test on Rattus norvegicus [2] worked out at 79%.
For the compound `C/N=C(\NC#N)NCCSCCCn1nc(-c2ccccc2)ccc1=O`, the inhibition in vivo at 100 mg/kg in the test with Rattus norvegicus [4] was found to be 18.2%. The compound also yielded an ED50 in the test with Rattus norvegicus [3] of more than 100 mg/kg.
For `CCC/N=C(\NC#N)NCCSCn1nc(-c2ccccc2)ccc1=O`, the ED50 in the test filed under Rattus norvegicus [1] is more than 100 mg/kg; in the test on Rattus norvegicus [3], 97.6 mg/kg. Besides, in the test on Rattus norvegicus [2], the inhibition in vivo at 100 mg/kg was determined as 37.3%.
In the case of `C/N=C(\NC#N)NCCSCn1nc(N2CCOCC2)ccc1=O`, the inhibition in vivo at 100 mg/kg with Rattus norvegicus [4] was -12.5%. Also, in the test on Rattus norvegicus [6], the ED50 result is “inactive”.
On to `C/N=C(\NC#N)NCCSCn1nc(N(C)C)ccc1=O`, for which the inhibition in vivo at 100 mg/kg in the test with Rattus norvegicus [4] was determined as 6.9%.
For `C/N=C(\NC#N)NCCCCOCn1nc(-c2ccccc2)ccc1=O`, the ED50 entry in the test on Rattus norvegicus [5] is “inactive”. This compound also showed a 50% effective dose (ED50) in the test filed under Rattus norvegicus [1] of more than 100 mg/kg. Moreover, the inhibition in vivo at 100 mg/kg with Rattus norvegicus [2] came out at 32.8%.
`C/N=C(\NC#N)NCCSCn1nc(-c2ccc(Cl)cc2)ccc1=O` gave an ED50 in the test listed under Rattus norvegicus [1] of less than 39.1 mg/kg. For the same compound, the inhibition in vivo at 100 mg/kg in the test on Rattus norvegicus [2] was 70.3%.
On the same counts, the results for `CC/N=C(\NC#N)NCCSCn1nc(C)ccc1=O` are more than 100 mg/kg and 26.7%.

The values above are taken from ChEMBL document CHEMBL1122267, “Pyridazinones. 3. Synthesis, antisecretory, and antiulcer activities of 2-cyanoguanidine derivatives” (1983).
